From US8399462B2, “JNK modulators” (Roche Palo Alto LLC, priority 2006, dated 2013)

In the case of Cl.N[C@H]1CC[C@H](Nc2nccc(-n3ccc4c(F)cccc43)n2)CC1, the melting point is reported as > 300 °C.

First: CS(=O)(=O)CCCOc1cccc2c1ccn2-c1ccnc(N[C@H]2CC[C@H](N)CC2)n1.Cl
Second: CS(=O)(=O)CCCOc1cccc2c1ccn2-c1ccnc(N[C@H]2CC[C@H](CN)CC2)n1.Cl
The melting point of the first is lower: 291 to 292 °C for the first, 292 to 293 °C for the second.

First: CS(=O)(=O)CCCOc1cccc2c1ccn2-c1ccnc(N[C@H]2CC[C@H](NC(=O)CCN)CC2)n1.Cl
Second: CS(=O)(=O)CCCOc1cccc2c1ccn2-c1ccnc(N[C@H]2CC[C@H](C(=O)N3CCC(=O)CC3)CC2)n1
The melting point of the first is higher: 263 to 264 °C for the first, 155 to 158.2 °C for the second.

First: Cl.NC[C@H]1CC[C@H](Nc2nccc(-n3ccc4c(OCCCC(F)(F)F)cccc43)n2)CC1
Second: COC[C@@H]1CCCN1C(=O)[C@H]1CC[C@H](Nc2nccc(-n3ccc4c(OCCCS(C)(=O)=O)cccc43)n2)CC1 (stereo in doubt) [Compound 266, (4-{4-[4-(3-methane-sulfonyl-propoxy)-indol-1-yl]-pyrimidin-2-ylamino}-cyclohexyl)-(2-methoxymethyl-pyrrolidin-1-yl)-methanone]
The melting point of the first is higher: 274 to 275 °C for the first, 92 to 93 °C for the second.

First: CC1(C)OC[C@@H](COc2cccc3c2cnn3-c2ccnc(N[C@H]3CC[C@H](O)CC3)n2)O1 (stereo in doubt) [Compound 98, 4-{4-[4-(2,2-dimethyl-[1,3]dioxolan-4-ylmeth-oxy)-indazol-1-yl]-pyrimidin-2-ylamino}-cyclohexanol]
Second: CC1(C)OC[C@@H](COc2cccc3c2cnn3-c2ccnc(N[C@H]3CC[C@H](C(C)(C)O)CC3)n2)O1 (stereo in doubt) [Compound 132, 2-(4-{4-[4-(2,2-di-methyl[1,3]dioxolan-4-ylmethoxy)-indazol-1-yl]-pyrimidin-2-yl-amino}-cyclohexyl)-propan-2-ol]
The melting point of the first is higher: 189.2 to 190 °C for the first, 178.5 to 180 °C for the second.

First: CC1(C)OC[C@@H](COc2cccc3c2cnn3-c2ccnc(N[C@H]3CC[C@H](C(=O)N4CCCC4)CC3)n2)O1 (stereo in doubt) [Compound 127, (4-{4-[4-(2,2-dimethyl-[1,3]dioxolan-4-yl-methoxy)-indazol-1-yl]-pyrimidin-2-ylamino}-cyclohexyl)-pyrrolidin-1-ylmethanone]
Second: CC(=O)N[C@H]1CC[C@H](Nc2nccc(-n3ncc4c(OC[C@@H]5COC(C)(C)O5)cccc43)n2)CC1 (stereo in doubt) [Compound 131, N-(4-{4-[4-(2,2-di-methyl[1,3]dioxolan-4-ylmethoxy)-indazol-1-yl]-pyrimidin-2-yl-amino}-cyclohexyl)-acetamide]
The melting point of the first is lower: 196 to 198 °C for the first, 214.5 to 215.5 °C for the second.

First: CC1(C)OC[C@@H](COc2cccc3c2cnn3-c2ccnc(N[C@H]3CC[C@H](NS(C)(=O)=O)CC3)n2)O1 (stereo in doubt) [Compound 128, N-(4-{4-[4-(2,2-di-methyl[1,3]dioxolan-4-ylmethoxy)-indazol-1-yl]-pyrimidin-2-yl-amino}-cyclohexyl)-methanesulfonamide]
Second: C[C@@H](CO)COc1cccc2c1cnn2-c1ccnc(N[C@H]2CC[C@H](N(C)S(C)(=O)=O)CC2)n1 (stereo in doubt) [Compound 186, N-(4-{4-[4-(3-hydroxy-2-methylpropoxy)-indazol-1-yl]-pyrimidin-2-ylamino}-cyclohexyl)-N-methyl-methanesulfonamide]
The melting point of the first is higher: 247 to 247.8 °C for the first, 222 to 224 °C for the second.

Compared with O=C([C@H]1CC[C@H](Nc2nccc(-n3ncc4c(OC[C@@H](O)CO)cccc43)n2)CC1)N1CCCC1 (stereo in doubt) [Compound 153, (4-{4-[4-(2,3-dihydroxy-propoxy)-indazol-1-yl]-pyrimidin-2ylamino}-cyclohexyl)-pyrrolidin-1-ylmethanone], C[C@@H](CO)COc1cccc2c1cnn2-c1ccnc(N[C@H]2CC[C@H](C(=O)N3CCCC3)CC2)n1 (stereo in doubt) [Compound 171, (4-{4-[4-(3-hydroxy-2-methylpropoxy)-indazol-1-yl]-pyrimidin-2-ylamino}-cyclohexyl)-pyrrolidin-1-ylmethanone] is higher in melting point: 166 to 167 °C for the first, 199.4 to 200.4 °C for the second.

First: CC(=O)N[C@H]1CC[C@H](Nc2nccc(-n3ncc4c(OC[C@@H](O)CO)cccc43)n2)CC1 (stereo in doubt) [Compound 154, N-(4-{4-[4-(2,3-di-hydroxy-propoxy)-indazol-1-yl]-pyrimidin-2-ylamino}-cyclohexyl)-acetamide]
Second: CC(=O)N[C@H]1CC[C@H](Nc2nccc(-n3ncc4c(OC[C@@H](C)CO)cccc43)n2)CC1 (stereo in doubt) [Compound 172, N-(4-{4-[4-(3-hydroxy-2-methylpropoxy)-indazol-1-yl]-pyrimidin-2-ylamino}-cyclohexyl)-acetamide]
The melting point of the first is lower: 202 to 205 °C for the first, 215 to 216 °C for the second.

C[C@@H](CO)COc1cccc2c1cnn2-c1ccnc(N[C@H]2CC[C@H](C(C)(C)O)CC2)n1 (stereo in doubt) [Compound 185, 3-(1-{2-[4-(2-hydroxy-prop-2-yl)-cyclohexyl-amino]-pyrimidin-4-yl}-1H-indazol-4-yloxy)-2-methylpropan-1-ol] and CS(=O)(=O)C[C@H](O)COc1cccc2c1cnn2-c1ccnc(N[C@H]2CC[C@H](O)CC2)n1 (stereo in doubt) [Compound 198, 4-{4-[4-(2-hydroxy-3-methanesulfonyl-propoxy)-indazol-1-yl]-pyrimidin-2-ylamino}-cyclohexanol] cannot be ordered by melting point: 211 to 212.5 °C for the first, 211 to 212 °C for the second.

First: CS(=O)(=O)CCCOc1cccc2c1cnn2-c1ccnc(N[C@H]2CC[C@H](C(=O)N3CC[C@@H](O)C3)CC2)n1 (stereo in doubt) [Compound 216, (3-hydroxy-pyrrolidin-1-yl)-(4-{4-[4-(3-methane-sulfonyl-propoxy)-indazol-1-yl]-pyrimidin-2-ylamino}-cyclohexyl)-methanone]
Second: CS(=O)(=O)CCCOc1cccc2c1cnn2-c1ccnc(N[C@H]2CC[C@H](C(=O)N3CC[C@H](O)C3)CC2)n1 (stereo in doubt) [Compound 217, (3-hydroxy-pyrrolidin-1-yl)-(4-{4-[4-(3-methane-sulfonyl-propoxy)-indazol-1-yl]-pyrimidin-2-ylamino}-cyclohexyl)-methanone]
The melting point of the first is lower: 174 to 175 °C for the first, 175 to 176 °C for the second.

Compared with CS(=O)(=O)C[C@H](O)COc1cccc2c1cnn2-c1ccnc(N[C@H]2CC[C@H](C(=O)N3CCC(O)CC3)CC2)n1 (stereo in doubt) [Compound 234, (4-{4-[4-(2-hydroxy-3-methanesulfonyl-propoxy)-indazol-1-yl]-pyrimidin-2-ylamino}-cyclohexyl)-(4-hydroxy-piperidin-1-yl)-methanone], NS(=O)(=O)CCCOc1cccc2c1cnn2-c1ccnc(N[C@H]2CC[C@H](C(=O)N3CC[C@H](O)C3)CC2)n1 (stereo in doubt) [Compound 252, 3-(1-{2-[4-(3-hydroxy-pyrrolidine-1-carbonyl)-cyclohexylamino]-pyrimidin-4-yl}-1H-indazol-4-yloxy)-propane-1-sulfonic acid amide] is lower in melting point: 232 to 233 °C for the first, 161 to 162 °C for the second.

First: NS(=O)(=O)CCCOc1cccc2c1cnn2-c1ccnc(N[C@H]2CC[C@H](C(=O)N3CC[C@@H](O)C3)CC2)n1 (stereo in doubt) [Compound 253, 3-(1-{2-[4-(3-hydroxy-pyrrolidine-1-carbonyl)-cyclohexylamino]-pyrimidin-4-yl}-1H-indazol-4-yloxy)-propane-1-sulfonic acid amide]
Second: C[C@@H]1CCCN1C(=O)[C@H]1CC[C@H](Nc2nccc(-n3ncc4c(OCCCS(N)(=O)=O)cccc43)n2)CC1 (stereo in doubt) [Compound 272, 3-(1-{2-[4-(2-methyl-pyrrolidine-1-carbonyl)-cyclohexylamino]-pyrimidin-4-yl}-1H-indazol4-yloxy)-propane-1-sulfonic acid amide]
The melting point of the first is lower: 178 to 179 °C for the first, 230 to 231 °C for the second.

First: CC(C)(CO)COc1cccc2c1cnn2-c1ccnc(N[C@H]2CC[C@H](C(=O)N3CC[C@@H](O)C3)CC2)n1 (stereo in doubt) [Compound 261, (4-{4-[4-(3-hydroxy-2,2-dimethyl-propoxy)-indazol-1-yl]-pyrimidin-2-ylamino}-cyclohexyl)-(3-hydroxy-pyrrolidin-1-yl)-methanone]
Second: C[C@H]1CCCN1C(=O)[C@H]1CC[C@H](Nc2nccc(-n3ncc4c(OCCCS(N)(=O)=O)cccc43)n2)CC1 (stereo in doubt) [Compound 273, 3-(1-{2-[4-(2-methyl-pyrrolidine-1-carbonyl)-cyclohexylamino]-pyrimidin-4-yl}-1H-indazol-4-yloxy)-propane-1-sulfonic acid amide]
The melting point of the first is lower: 214 to 215 °C for the first, 230 to 231 °C for the second.

First: C[C@@H]1CC[C@@H](C)N1C(=O)[C@H]1CC[C@H](Nc2nccc(-n3ncc4c(OCCCS(N)(=O)=O)cccc43)n2)CC1 (stereo in doubt) [Compound 271, 3-(1-{2-[4-(2,5-di-methyl-pyrrolidine-1-carbonyl)-cyclohexyl-amino]-pyrimidin-4-yl}-1H-indazol4-yloxy)-propane-1-sulfonic acid amide]
Second: COC(=O)c1cccc2c1ccn2-c1ccnc(N[C@H]2CC[C@H](O)CC2)n1 [Compound 37, 1-[2-(4-hydroxycyclo-hexylamino)-pyrimidin-4-yl]-1H-indole-4-carboxylic acid methyl ester]
The melting point of the first is higher: 230 to 231 °C for the first, 206.7 to 208.3 °C for the second.

Compared with O=[N+]([O-])c1ccc2cnn(-c3ccnc(N[C@H]4CC[C@H](O)CC4)n3)c2c1 [Compound 27], Cn1nc(-c2ccnc(N[C@H]3CC[C@H](O)CC3)n2)c2ccccc21 [Compound 77, 4-[4-(1-methyl-1H-indazol-3-yl)pyridimidin-2-ylamino]-cyclo-hexanol] is lower in melting point: 221.8 to 223 °C for the first, 180 to 183.3 °C for the second.

Compared with N[C@H]1CC[C@H](Nc2nccc(-n3ccc4ccccc43)n2)CC1 [Compound 52, N-(4-indol-1-yl-pyrimidin-2-yl)-cyclo-hexane-1,4-diamine], c1ccc2c(c1)ccn2-c1ccnc(NC2CCCCC2)n1 [Compound 66, Cyclohexyl-(4-indol-1-ylpyrimidin-2-yl)amine] is lower in melting point: 270.1 to 273.3 °C for the first, 192.5 to 193 °C for the second.

With COc1cccc2c(-c3ccnc(N[C@H]4CC[C@H](O)CC4)n3)n[nH]c12 [Compound 80, 4-[4-(7-methoxy-1H-indazol-3-yl)-pyrimidin-2-ylamino]-cyclo-hexanol] the melting point was 243.3 to 244.9 °C.
